{"source": "patent US20200276139A1", "about": "(Evoke Pharma, Inc., priority 2017, published 2020)", "key": {"[1]": {"assay": "Study METO-IN-006: open-label, randomized, 4-treatment crossover pharmacokinetic/bioequivalence study of intranasal metoclopramide (Gimoti 15, 16, 17 mg) vs Reglan Tablets 10 mg", "format": "in vivo, human", "settings": "for AUC0-inf Inter-CV % (Between-Subject) / AUC0-inf Intra-CV % (Within-Subject) / AUC0-t Inter-CV % (Between-Subject) / AUC0-t Intra-CV % (Within-Subject) / Cmax Inter-CV % (Between-Subject) / Cmax Intra-CV % (Within-Subject): bioequivalence analysis over all treatments", "source_text": "In the study, approximately 108 healthy subjects may be enrolled to allow approximately 100 subjects to complete the study.\nThe pharmacokinetic study will be an open-label, randomized, 4-treatment, 4-period, 4-sequence crossover study. […] Further, the subjects will undergo screening, in which the eligibility of the subjects will be assessed after completion of inclusion and exclusion criteria. […] Samples will be collected over many hours after the dose. Subjects will return to the clinic after the minimum washout for subsequent doses until the four-period cross-over is completed.\nBlood samples will be collected prior to dosing, and at predetermined time periods after each dose. […] Relevant pharmacokinetic parameters will be summarized using descriptive statistics.\nCollect blood from a subject. • 2. Gently mix the collected blood prior to centrifugation and place immediately on ice. • 3. Centrifuge the sample in a refrigerated centrifuge. • 4. Immediately following centrifugation, gently remove plasma from the packed cells. • 5. Freeze the plasma samples immediately at approximately −20° C. or lower."}, "[2]": {"assay": "Study METO-IN-006: open-label, randomized, 4-treatment crossover pharmacokinetic/bioequivalence study of intranasal metoclopramide (Gimoti 15, 16, 17 mg) vs Reglan Tablets 10 mg", "format": "in vivo, human", "settings": "overall population; 16 and 17 mg doses; prior comparative bioavailability study"}, "[3]": {"settings": "Reglan package insert; cited from earlier work"}}}
{"smiles": "CCN(CC)CCNC(=O)c1cc(Cl)c(N)cc1OC", "note": "[metoclopramide, 4-amino-5-chloro-N-(2-(diethylamino)ethyl)-2-methoxybenzamide]", "values": [{"measurement": "AUC0-inf Inter-CV % (Between-Subject)", "setting": "[1]; Female", "value": 43.72, "unit": "%"}, {"measurement": "AUC0-inf Intra-CV % (Within-Subject)", "setting": "[1]; Female", "value": 48.14, "unit": "%"}, {"measurement": "AUC0-t Inter-CV % (Between-Subject)", "setting": "[1]; Female", "value": 43.12, "unit": "%"}, {"measurement": "AUC0-t Intra-CV % (Within-Subject)", "setting": "[1]; Female", "value": 52.62, "unit": "%"}, {"measurement": "Cmax Inter-CV % (Between-Subject)", "setting": "[1]; Female", "value": 35.03, "unit": "%"}, {"measurement": "Cmax Intra-CV % (Within-Subject)", "setting": "[1]; Female", "value": 58.04, "unit": "%"}, {"measurement": "AUC0-inf Inter-CV % (Between-Subject)", "setting": "[1]; Male", "value": 44.81, "unit": "%"}, {"measurement": "AUC0-inf Intra-CV % (Within-Subject)", "setting": "[1]; Male", "value": 55.82, "unit": "%"}, {"measurement": "AUC0-t Inter-CV % (Between-Subject)", "setting": "[1]; Male", "value": 52.65, "unit": "%"}, {"measurement": "AUC0-t Intra-CV % (Within-Subject)", "setting": "[1]; Male", "value": 62.88, "unit": "%"}, {"measurement": "Cmax Inter-CV % (Between-Subject)", "setting": "[1]; Male", "value": 54.25, "unit": "%"}, {"measurement": "Cmax Intra-CV % (Within-Subject)", "setting": "[1]; Male", "value": 78.31, "unit": "%"}, {"measurement": "AUC∞, AUCt, and Cmax, women versus men", "setting": "[1]; each dose of metoclopramide tested", "value": "significantly higher in women than in men"}, {"measurement": "Treatment Emergent Adverse Events (TEAEs) and other safety parameters, males vs females", "setting": "[1]; review of data of both studies", "value": "no differences between males and females"}, {"measurement": "bioequivalence criteria for AUC", "setting": "[2]", "value": "met the bioequivalence criteria"}, {"measurement": "plasma protein binding", "setting": "[3]", "value": "approximately 30%"}, {"measurement": "volume distribution of metoclopramide", "setting": "[3]", "value": "approximately 3.5 L/kg"}]}
